Measured values reported in patent US20220041641A1, “QUATERNARY AMMONIUM SALTS AS INHIBITORS OF TRIMETHYLAMINE PRODUCTION” (Senda Biosciences, Inc., priority 2018, published 2022).
Where “and” joins values, the source holds several entries; their conditions need not be identical. Equal values may be shown once. Where a name gives a salt, the structure may show the parent alone. Read-outs that look alike come from different tables or passages of the source.

Tests used:
[1] = Caco-2 permeability assay; assay type: in vitro ADME; details: human, pH 7.4, 1 μM, 2 hours, 37° C.
Method: Preparation of Caco-2 Cells: 50 μL and 25 mL of cell culture medium were added to each well of the Transwell insert and reservoir, respectively. The HTS transwell plates were incubated at 37° C., 5% CO2 for 1 hour before cell seeding. […] Cell culture medium was replaced every other day, beginning no later than 24 hours after initial plating.
Assessment of Cell Monolayer Integrity: Medium was removed from the reservoir and each Transwell insert and replaced with prewarmed fresh culture medium. Transepithelial electrical resistance (TEER) across the monolayer was measured using Millicell Epithelial Volt-Ohm measuring system (Millipore, USA). The Plate was returned to the incubator once the measurement was done. The TEER value was calculated according to the following equation: […]
Preparation of Solutions: 2 mM stock solutions in DMSO of control compounds were prepared and diluted with HBSS (10 mM HEPES, pH 7.4) to get 10 μM working solution. 0.2 mM stock solutions of test compounds in DMSO were prepared and diluted with HBSS (10 mM HEPES, pH 7.4 with 0.5% BSA) to get 1 μM working solution. Metoprolol, erythromycin and cimetidine were used as control compounds.
The Caco-2 plate was removed from the incubator. The monolayer was washed twice with pre-warmed HBSS (10 mM HEPES, pH 7.4). The plate was incubated at 37° C. for 30 minutes. To determine the rate of drug transport in the apical to basolateral direction, 125 μL of the working solution was added to the Transwell insert (apical compartment). A 50 μL sample was transferred immediately from the apical compartment to 200 μL of acetonitrile containing IS (100 nM alprazolam, 200 nM Caffeine and 100 nM tolbutamide) in a new 96-well plate as the initial donor sample (A-B) and it was vortexed at 1000 rpm for 10 minutes. The wells in the receiver plate (basolateral compartment) were filled with 235 μL of transport buffer. To determine the rate of drug transport in the basolateral to apical direction, 285 μL of the working solution were added to the receiver plate wells (basolateral compartment). A 50 μL sample was transferred immediately from the basolateral compartment to 200 μL of acetonitrile containing IS (100 nM alprazolam, 200 nM Caffeine and 100 nM tolbutamide) in a new 96-well plate as the initial donor sample (B-A) and it was vortexed at 1000 rpm for 10 minutes. The Transwell insert (apical compartment) was filled with 75 μL of transport buffer. The apical to basolateral direction and the basolateral to apical direction need to be done at the same time. The plates were incubated at 37° C. for 2 hours. At the end of the incubation, 50 μL samples from donor sides (apical compartment for Ap→Bl flux, and basolateral compartment for B1→Ap) and receiver sides (basolateral compartment for Ap→Bl flux, and apical compartment for B1→Ap) were transferred to wells of a new 96-well plate, followed by the addition of 4 volume of acetonitrile containing IS (100 nM alprazolam, 200 nM Caffeine and 100 nM tolbutamide). Samples were vortexed for 10 minutes, 50 μL samples were transferred to wells of a new 96-well plate, followed by the addition of 50 μL Hepes and 200 μL IS. All samples were vortexed for 10 minutes, and then centrifuged at 3,220 g for 40 minutes. An aliquot of 150 μL of the supernatant was mixed with an appropriate volume of ultra-pure water before LC-MS/MS analysis.
Apparent permeability (Papp) can be calculated for drug transport assays using the following equation: […]
Papp is apparent permeability (cm/s×10^−6);
Papp (B-A) indicates the apparent permeability coefficient in basolateral to apical direction, and
Papp (A-B) indicates the apparent permeability coefficient in apical to basolateral direction.

[2] = biological target: CutC from Proteus mirabilis (Proteus mirabilis, UniProt B4EYG1); assay: Cell-based assay for TMA production from a native producer (P. mirabilis)
Excerpt: (§1) In each bacterium, CutC was modified into its activated form by a cognate activating enzyme, CutD (protein EDU36696.1 for C. sporogenes; protein WP_004249185.1 for P. mirabilis). […] Trimethylamine may subsequently be converted by human enzymes such as flavin monooxygenase 3 to trimethylamine N-oxide, which might be associated with negative health consequences in humans.
(§2) A compound's ability to inhibit CutC from Proteus mirabilis and C. sporogenes from converting choline into trimethylamine was tested in cells as described. A BHI blood plate was inoculated with a frozen stock of Proteus mirabilis or Clostridium sporogenes under anaerobic conditions. A single colony was isolated from the plate and inoculated into 5 mL BHI supplemented with 1 mM choline under anaerobic conditions. The liquid cultures were grown overnight at 37° C.
(§3) To prepare each sample, 300 μL of the saturated culture was then inoculated into a 30 mL dilution blank under anaerobic conditions. 1 mM (trimethyl-d9)-choline and a sufficient amount of a compound to obtain a final concentration of 10 μM were added to the inoculated dilution blank. […] The mixture was incubated at 37° C. for 5 h. […] After centrifugation, the samples were analyzed by LCMS to determine the amount of d9-TMA produced.

[3] = biological target: CutC from Clostridium sporogenes (Clostridium sporogenes, UniProt A0AAE4Z0A8); assay: Cell-based assay for TMA production from a native producer (C. sporogenes); details: read-out: IC50 Whole cell C. sporogenes; d9-TMA from 1 mM d9-choline, 5 h, 37° C.; run once; value 10 given when no fit or % TMA remaining at 10 μM higher than 15%
Excerpt: as §1, §2, §3

CutC/D enzyme = assay: Acute mouse model (plasma TMAO on choline diet); assay type: in vivo, male C57BL/6 mice; details: Table 4b; for % change from vehicle control + choline diet: 10 mg/kg oral gavage days 1-3; for Mean plasma TMAO: 10 mg/kg oral gavage days 1-3, plasma 20 h after last gavage
Method: The following acute mouse model may be used to determine inhibition of the CutC/D enzyme and thus the inhibition of the formation of trimethylamine (TMA) from choline.
On day 1, male C57BL/6 mice were given a chemically defined diet (Tekland Global Rodent Diet 2018) containing 1.0% choline (g/g) for the duration of the experiment. Concurrently on day 1, mice were orally gavaged with 200 μL of compounds of interest (formulated in water). Mice were orally gavaged with the compounds and vehicle control again on day 2 and day 3 at a fixed time. Twenty hours after the last gavage, mice were sacrificed, and plasma was collected and prepared for detection of trimethylamine-N-oxide (TMAO) via liquid chromatography with on-line tandem mass spectrometry (LC-MS/MS). Food consumption and mouse weight were measured each day.
Plasma samples were prepared for LCMS as follows: An aliquot of 20 μL plasma sample was protein precipitated with 200 μL internal standard solution (100 ng/mL Labetalol & 100 ng/mL Tolbutamide & 100 ng/mL Diclofenac in acetonitrile, the mixture was vortex-mixed and centrifuged at 4000 rpm for 15 min, 4° C. An aliquot of 100 μL supernatant was transferred to the sample plate for LCMS injection. 1 μL of sample was injected onto an LC column for TMAO LCMS analysis.
Concentrations of TMAO were determined with a calibration curve ranging 0.05-100 μM for d9-TMAO in control plasma.

[4] = d9-TMA from 1 mM d9-choline, 5 h, 37° C.; value 10 given when no fit or % TMA remaining at 10 μM higher than 15%; read-out: Average IC50 Whole cell P. mirabilis

Chain of CutC from Proteus mirabilis (B4EYG1 entry or part of it): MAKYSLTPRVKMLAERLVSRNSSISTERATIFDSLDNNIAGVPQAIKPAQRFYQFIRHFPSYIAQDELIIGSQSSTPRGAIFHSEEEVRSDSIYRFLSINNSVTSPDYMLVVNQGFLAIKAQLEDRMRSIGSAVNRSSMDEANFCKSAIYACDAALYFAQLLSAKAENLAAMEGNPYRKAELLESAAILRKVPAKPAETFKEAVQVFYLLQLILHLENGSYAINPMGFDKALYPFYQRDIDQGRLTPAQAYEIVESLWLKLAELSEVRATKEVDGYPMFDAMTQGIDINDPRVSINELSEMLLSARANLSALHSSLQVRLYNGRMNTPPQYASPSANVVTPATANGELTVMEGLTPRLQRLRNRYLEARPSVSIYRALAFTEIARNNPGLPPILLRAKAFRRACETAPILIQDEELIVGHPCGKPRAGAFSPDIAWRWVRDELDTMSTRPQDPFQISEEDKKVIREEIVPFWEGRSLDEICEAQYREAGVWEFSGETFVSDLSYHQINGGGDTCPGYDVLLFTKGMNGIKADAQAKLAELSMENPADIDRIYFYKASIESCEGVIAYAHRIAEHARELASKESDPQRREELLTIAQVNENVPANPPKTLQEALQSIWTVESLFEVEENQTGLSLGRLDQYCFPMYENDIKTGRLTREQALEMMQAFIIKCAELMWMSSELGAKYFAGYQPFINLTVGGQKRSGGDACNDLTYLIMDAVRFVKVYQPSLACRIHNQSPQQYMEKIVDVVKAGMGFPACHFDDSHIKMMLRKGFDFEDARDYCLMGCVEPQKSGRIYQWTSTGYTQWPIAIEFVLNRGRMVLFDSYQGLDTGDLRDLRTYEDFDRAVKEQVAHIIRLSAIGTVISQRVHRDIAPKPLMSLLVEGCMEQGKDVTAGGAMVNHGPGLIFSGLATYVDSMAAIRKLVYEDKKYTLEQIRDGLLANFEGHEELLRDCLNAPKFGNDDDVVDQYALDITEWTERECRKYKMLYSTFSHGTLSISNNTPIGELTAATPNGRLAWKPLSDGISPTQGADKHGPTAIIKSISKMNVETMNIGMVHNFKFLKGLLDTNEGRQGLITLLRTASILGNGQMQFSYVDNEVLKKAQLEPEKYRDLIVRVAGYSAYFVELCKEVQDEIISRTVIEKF
Chain of CutC from Proteus mirabilis (B4EYG0 entry or part of it, further chain): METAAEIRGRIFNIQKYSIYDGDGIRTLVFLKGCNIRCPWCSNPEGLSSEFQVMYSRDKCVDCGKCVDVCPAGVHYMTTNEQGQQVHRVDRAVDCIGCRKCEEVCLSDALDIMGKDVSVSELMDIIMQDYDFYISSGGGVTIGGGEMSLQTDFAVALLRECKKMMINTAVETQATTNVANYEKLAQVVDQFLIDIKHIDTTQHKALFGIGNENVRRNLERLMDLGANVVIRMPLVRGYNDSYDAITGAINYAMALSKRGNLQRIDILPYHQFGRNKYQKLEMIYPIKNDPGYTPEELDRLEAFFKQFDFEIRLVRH
Chain of CutC from Clostridium sporogenes (A0ABD6RTF0 entry or part of it): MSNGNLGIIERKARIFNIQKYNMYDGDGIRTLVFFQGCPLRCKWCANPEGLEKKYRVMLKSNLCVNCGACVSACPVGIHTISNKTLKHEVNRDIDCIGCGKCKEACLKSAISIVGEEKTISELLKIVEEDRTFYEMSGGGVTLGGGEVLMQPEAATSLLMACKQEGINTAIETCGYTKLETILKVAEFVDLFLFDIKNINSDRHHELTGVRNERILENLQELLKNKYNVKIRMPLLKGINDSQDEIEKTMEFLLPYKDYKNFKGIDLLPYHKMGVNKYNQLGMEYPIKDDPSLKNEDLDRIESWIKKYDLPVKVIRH
Chain of CutC from Clostridium sporogenes (A0AAE4Z0A8 entry or part of it): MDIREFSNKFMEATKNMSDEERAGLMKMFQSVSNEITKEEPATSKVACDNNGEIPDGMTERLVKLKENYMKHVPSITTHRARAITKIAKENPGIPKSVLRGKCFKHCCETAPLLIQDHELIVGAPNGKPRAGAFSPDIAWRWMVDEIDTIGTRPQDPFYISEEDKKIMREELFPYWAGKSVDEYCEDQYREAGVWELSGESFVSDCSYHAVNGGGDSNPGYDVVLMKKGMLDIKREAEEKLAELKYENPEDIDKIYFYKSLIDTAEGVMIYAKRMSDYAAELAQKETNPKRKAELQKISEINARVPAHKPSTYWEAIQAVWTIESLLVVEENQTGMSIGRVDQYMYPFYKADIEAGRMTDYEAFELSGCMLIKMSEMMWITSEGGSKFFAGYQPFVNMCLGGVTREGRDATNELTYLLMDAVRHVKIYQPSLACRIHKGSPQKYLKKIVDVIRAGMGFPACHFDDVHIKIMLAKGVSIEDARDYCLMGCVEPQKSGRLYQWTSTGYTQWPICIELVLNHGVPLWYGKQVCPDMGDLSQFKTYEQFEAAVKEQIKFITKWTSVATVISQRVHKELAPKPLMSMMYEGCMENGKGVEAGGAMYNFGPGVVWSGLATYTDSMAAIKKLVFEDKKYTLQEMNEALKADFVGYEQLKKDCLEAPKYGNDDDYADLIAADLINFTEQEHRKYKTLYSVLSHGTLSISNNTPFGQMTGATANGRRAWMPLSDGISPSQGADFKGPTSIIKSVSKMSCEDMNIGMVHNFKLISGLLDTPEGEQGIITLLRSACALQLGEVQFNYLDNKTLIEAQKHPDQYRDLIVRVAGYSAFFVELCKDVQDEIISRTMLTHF

## C#CC[N+](C)(CF)CCO[C@@H]1O[C@H](COC(C)=O)[C@@H](OC(C)=O)[C@H](OC(C)=O)[C@H]1OC(C)=O (stereo partly drawn) [Compound 77, (fluoromethyl)(methyl)(prop-2-yn-1-yl)(2-{[(2R,3R,4S,5R,6R)-3,4,5-tris(acetyloxy)-6-[(acetyloxy)methyl]oxan-2-yl]oxy}ethyl)azanium]
[1]; Caco-2, apical to basolateral, read-out: Papp A-B
  Papp A→B at 2 h, 1 µM: 0.218 ×10⁻⁶ cm/s
[1]; Caco-2, basolateral to apical, read-out: Papp B-A
  Papp B→A at 2 h, 1 µM: 0.337 ×10⁻⁶ cm/s
[2]; [4]
  IC50: ≥ 10000 nM

## C#CC[N+]1(C)CCC[C@H]1CO (stereo partly drawn) [Compound 108, (2S)-2-(hydroxymethyl)-1-methyl-1-(prop-2-yn-1-yl)pyrrolidin-1-ium bromide]
[2]; [4]
  IC50: 2190 nM
[3]
  IC50: 2460 nM

## C[N+]1(C)CCCC1CO (centres unmarked) [Compound 110, 2-(hydroxymethyl)-1,1-dimethylpyrrolidin-1-ium Iodide]
[2]; [4]
  IC50: ≥ 10000 nM
[3]
  IC50: ≥ 10000 nM

## C#CC[N+]1(C)CC[C@H](O)C1 (stereo partly drawn) [Compound 112, (3S)-3-hydroxy-1-methyl-1-(prop-2-yn-1-yl)pyrrolidin-1-ium bromide]
[2]; [4]
  IC50: 550 nM
[3]
  IC50: 280 nM

## C#CC[N+]1(C)CC[C@@H](O)C1 (stereo partly drawn) [Compound 113, (3R)-3-hydroxy-1-methyl-1-(prop-2-yn-1-yl)pyrrolidin-1-ium bromide]
[2]; [4]
  IC50: 700 nM
[3]
  IC50: 1250 nM

## C[N+]1(CF)CC[C@H](O)C1 (stereo partly drawn) [Compound 114, (3S)-1-(fluoromethyl)-3-hydroxy-1-methylpyrrolidin-1-ium Iodide]
[2]; [4]
  IC50: 2080 nM
[3]
  IC50: 1630 nM

## C[N+]1(CF)CC[C@@H](O)C1 (stereo partly drawn) [Compound 115, (3R)-1-(fluoromethyl)-3-hydroxy-1-methylpyrrolidin-1-ium Iodide]
[2]; [4]
  IC50: 2070 nM
[3]
  IC50: 9850 nM

## C[N+]1(C)CC[C@@H](O)C1 [Compound 116, (R)-3-hydroxy-1,1-dimethylpyrrolidin-1-ium Iodide]
[2]; [4]
  IC50: ≥ 10000 nM
[3]
  IC50: ≥ 10000 nM

## C[N+]1(C)CC[C@H](O)C1 [Compound 117, (S)-3-hydroxy-1,1-dimethylpyrrolidin-1-ium Iodide]
[2]; [4]
  IC50: ≥ 10000 nM
[3]
  IC50: ≥ 10000 nM

## C[N+](C)(C)CCCC(=O)O [Compound 127, 3-carboxy-N,N,N-trimethylpropan-1-aminium Iodide]
[2]; [4]
  IC50: 5010 nM
[3]
  IC50: ≥ 10000 nM

## C[N+](C)(C)CCNC=O [Compound 128]
[2]; [4]
  IC50: ≥ 10000 nM
[3]
  IC50: ≥ 10000 nM

## C#CC[N@@+]1(C)CCC[C@@H]1CO [Compound 129, (1R,2R)-2-(hydroxymethyl)-1-methyl-1-(prop-2-yn-1-yl)pyrrolidin-1-ium Bromide]
[2]; [4]
  IC50: ≥ 10000 nM
[3]
  IC50: ≥ 10000 nM

## C#CCC[N+](C)(C)C [Compound 130]
[2]; [4]
  IC50: 3470 nM
[3]
  IC50: ≥ 10000 nM

## C[N+](C)(C)CC#CCO [Compound 132, 4-hydroxy-N,N,N-trimethylbut-2-yn-1-aminium Chloride]
[2]; [4]
  IC50: ≥ 10000 nM
[3]
  IC50: ≥ 10000 nM

## C#CC(C)[N+](C)(C)C (centres unmarked) [Compound 133]
[2]; [4]
  IC50: 660 nM
[3]
  IC50: 440 nM

## C[N+]1(C)CCCC1COCc1ccccc1 (centres unmarked) [Compound 134, 2-[(benzyloxy)methyl]-1,1-dimethylpyrrolidin-1-ium Iodide]
[2]; [4]
  IC50: ≥ 10000 nM
[3]
  IC50: ≥ 10000 nM

## C#CC1CC[N+](C)(C)C1 (centres unmarked) [Compound 137, 3-ethynyl-1,1-dimethylpyrrolidin-1-ium Iodide]
[2]; [4]
  IC50: ≥ 10000 nM
[3]
  IC50: ≥ 10000 nM

## C#CC[N+](C)(C)CCCO [Compound 138, N-(3-hydroxypropyl)-N,N-dimethylprop-2-yn-1-aminium Trifluoroacetate]
[2]; [4]
  IC50: 1050 nM
[3]
  IC50: 5350 nM

## C[S+]([O-])C[N+](C)(C)C (centres unmarked) [Compound 140, (methanesulfinylmethyl)trimethylazanium Chloride]
[2]; [4]
  IC50: ≥ 10000 nM
[3]
  IC50: ≥ 10000 nM

## C#CC[N+](C)(C)CCCCO.O=C([O-])C(F)(F)F [Compound 141, 4-hydroxy-N,N-dimethyl-N-(prop-2-yn-1-yl)butan-1-aminium Trifluoroacetate]
[2]; [4]
  IC50: 5250 nM
CutC/D enzyme
  % change from vehicle control + choline diet: −88.23%
  Mean plasma TMAO: 2.92 µM
[3]
  IC50: ≥ 10000 nM

## C[N+](C)(C)CCCP(=O)(O)O [Compound 143, N,N,N-trimethyl-3-phosphonopropan-1-aminium Trifluoroacetatetrifluoroacetatetrifluoroacetatetrifluoroacetatetrifluoroacetate]
[2]; read-out: Average IC50 Whole cell P. mirabilis; d9-TMA from 1 mM d9-choline, 5 h, 37° C.; value 10 given when no fit or % TMA remaining at 10 μM higher than 15%
  IC50: ≥ 10000 nM
[3]
  IC50: ≥ 10000 nM

## C#CC[N+](C)(C)CCCC(=O)O [Compound 144, N-(3-carboxypropyl)-N,N-dimethylprop-2-yn-1-aminium Iodide]
[2]; [4]
  IC50: 580 nM
[3]
  IC50: 700 nM

## C[N+](C)(CCO)c1ccccc1 [Compound 145]
[2]; [4]
  IC50: ≥ 10000 nM
[3]
  IC50: 1380 nM

## C[N+](C)(CF)CC(O)O [Compound 146]
[2]; [4]
  IC50: ≥ 10000 nM
[3]
  IC50: 1500 nM

## C#CC[N+](C)(C)CCCCC(=O)O [Compound A51, 4-carboxy-N,N-dimethyl-N-(prop-2-yn-1-yl)butan-1-aminium Bromide]
[2]; [4]
  IC50: 1100 nM
[3]
  IC50: 930 nM

## C#CC[N+](C)(C)CC(=C)C(=O)O.[Br-] [Compound B52, 2-carboxy-N,N-dimethyl-N-(prop-2-yn-1-yl)prop-2-en-1-aminium Bromide]
[2]; [4]
  IC50: 40 nM and 30 nM
CutC/D enzyme
  % change from vehicle control + choline diet: 20.76%
  Mean plasma TMAO: 30.0 µM
[3]
  IC50: 10 nM

## C#CCn1ccnc1 [Compound Z76, 1-(prop-2-yn-1-yl)-1H-imidazole]
[2]; [4]
  IC50: 4040 nM
[3]
  IC50: ≥ 10000 nM
